Columns and labels:
[1] = system: 4T1 mouse breast cancer cells 3D cancerspheres; test: 3D cancersphere viability, 4T1; assay type: cell-based; details: 4T1 cancerspheres, 48 h treatment; doxorubicin 25 μM, FIGS. 7a, 7b
Method: (§1) A new model for tumor growth in vitro has been established as 3D cultures known as cancerspheres. To evaluate the clinical translatability and predictivity of the novel combinatorial therapy in vivo, 3D cancerspheres suspended in media containing extracellular matrix proteins (ECM) were treated with the combination of MTX, 2-DG, and WGN.
(§2) Mammary tumorspheres were grown using Matrigel® Extracellular Matrix Basement Membrane (Corning, USA). […]
(§3) After 8 days of culture and 48 h treatment, tumorspheres of roughly 50 cells or more were selected for qualitative analysis. […] After 5 min, tumorspheres were analyzed microscopically. […] Dead (non-viable) spheroids were characterized as stained and displaying no luminescence.
(§4) On the 8th day of culture, media from MCF-7 and 4-T1 mammary tumorsphere cultures was changed and cells were then treated with either our novel combinatorial therapy or 25 μM doxorubicin. […] Absorbance readings were taken in an Epoch microplate reader at 490 nm. […] Cell viability was calculated by the following formula: Cell viability (%)=(average OD in treated group/average OD in control group)×100%.

[2] = system: MCF-7 human breast cancer cells 3D cancerspheres; test: 3D cancersphere viability, MCF-7; assay type: cell-based; details: MCF-7 cancerspheres, 48 h treatment; doxorubicin 25 μM, FIGS. 7c, 7d
Method: as §1, §2, §3, §4

[3] = system: 4T1 (mouse breast cancer); test: MTS cell viability assay, 4T1 cells; assay type: cell-based; details: for efficacy in killing cancer cells: 4T1, concentration 6× lower than the ED50 concentrations, FIG. 3a; for EC50: Mus musculus, 4T1, MTS, 48 hours, individual drug, read-out: ED50 in 4T1
Method: (§5) The 50% effective dose (or ED50) for 2-DG, MTX, and WGN (individually) against the cancer cell lines 4T1 (mouse breast cancer), MCF-7 (human breast cancer), THP-1 (human myelomonocytic cancer), and B16-F10 (mouse melanoma) was determined (Table 1). The cell lines were specifically chosen for their extremely aggressive nature. For example, the cell lines have evolved multiple mechanisms of resistance to cell death and are highly metastatic (e.g., equivalent to a stage 4 cancer model). In this assay, a Determination of the ED50 using the MTS cell viability assay
(§6) Analysis of the effects of MTX-2DG-WGN combination on cell growth was performed with an MTS kit (CellTiter 96® AQueous One Solution Cell Proliferation Assay Kit, Promega, Madison, WI, USA) according to the manufacturer's instruction. 4-T1, MCF-7, B16-F10, and THP-1 cells were seeded into 96-well plates at a density of 10×10^3 cells per well with three replicates. The cells were treated as indicated (MTX, 2DG, and WGN were added initially at concentrations of 100 μM, 50 mM, and 200 μM, respectively, followed by serial two-fold dilutions) and incubated for 48 hours at 5% CO2 at 37° C. After 48 h, 20 μL of CellTiter 96® AQueous One Solution MTS (5 mg/mL) (Promega—Madison, WI, USA) was added to each well and incubated at 5% CO2 at 37° C. for an additional 4 hours. Absorbance readings were taken in an Epoch microplate reader at 490 nm. Computed data was compared to untreated and normalized cells. Cells that were not administered any treatment were considered the control group. Cell viability was calculated by the following formula: Cell viability (%)=(average OD in treated group/average OD in control group)×100%. A dose-activity curve with the concentration spectrum was prepared.
(§7) The EC50 was extrapolated from the dose-response graph. The drug concentration that caused 50% maximum effect with regards to cytotoxicity was determined by plotting triplicate data points over a concentration range and calculating values using regression analysis of GraphPad PRISM v8 program.
(§8) MTX, 2-DG, and WGN were tested alone and in combination. […] The combination of all 3 compounds was also tested, along with a negative control (untreated). The results are shown for 4T1 mouse breast cancer cells (FIG. 3a) and MCF7 human breast cancer cells (FIG. 3b).
(§9) The testing protocol was the same as that described for the ED50 noted above.

[4] = system: MCF-7 (human breast cancer); test: MTS cell viability assay, MCF-7 cells; assay type: cell-based; details: for EC50: Homo sapiens, MCF7, MTS, 48 hours, individual drug, read-out: ED50 in MCF-7; for efficacy in killing cancer cells: MCF7, concentration 6× lower than the ED50 concentrations, FIG. 3b
Method: as §5, §6, §7, §8, §9

[5] = system: THP-1 (human myelomonocytic cancer); test: MTS cell viability assay, THP-1 cells; assay type: cell-based; details: 48 hours, individual drug, read-out: ED50 in THP-1
Method: as §5
(§10) Analysis of the effects of MTX-2DG-WGN combination on cell growth was performed with an MTS kit (CellTiter 96® AQueous One Solution Cell Proliferation Assay Kit, Promega, Madison, WI, USA) according to the manufacturer's instruction. […] Absorbance readings were taken in an Epoch microplate reader at 490 nm. […] Cell viability was calculated by the following formula: Cell viability (%)=(average OD in treated group/average OD in control group)×100%. […]
(§11) The EC50 was extrapolated from the dose-response graph. The drug concentration that caused 50% maximum effect with regards to cytotoxicity was determined by plotting triplicate data points over a concentration range and calculating values using regression analysis of GraphPad PRISM v8 program. […]

[6] = system: B16-F10 (mouse melanoma); test: MTS cell viability assay, B16-F10 cells; assay type: cell-based; details: 48 hours, individual drug, read-out: ED50 in B16-F10
Method: as §5, §10, §11

[7] = 2-DG used alone; cited from earlier work
[8] = 2-DG administration, patients; cited from earlier work
[9] = system: dihydrofolate reductase (DHFR); details: cited from earlier work

Structure (SMILES) | efficacy against 3D cancerspheres [1] | efficacy against 3D cancerspheres [2] | efficacy in killing cancer cells [3] | EC50 [3] [µM] | EC50 [4] [µM] | efficacy in killing cancer cells [4] | EC50 [5] [µM] | EC50 [6] [µM] | concentration needed to be effective when used alone [7] [mM] | doses at which adverse effects occur [8] | affinity for DHFR relative to folate [9]
COc1cccc2c1C(=O)c1c(O)c3c(c(O)c1C2=O)C[C@@](O)(C(=O)CO)C[C@@H]3O[C@H]1C[C@H](N)[C@H](O)[C@H](C)O1 [doxorubicin] | resistant | resistant |  |  |  |  |  |  |  |  | 
COc1c(O)cc(O)c2c(=O)cc(-c3ccccc3)oc12 [WGN, Wogonin] |  |  | no effect whatsoever | 85 | 20.2 | no effect whatsoever | 83 | 76 |  |  | 
OCC1O[C@H](O)C[C@@H](O)[C@@H]1O (mixture of isomers) [2-DG, 2-deoxyglucose] |  |  | no effect whatsoever |  |  | no effect whatsoever |  |  | > 5 | above 63 mg/kg | 
CN(Cc1cnc2nc(N)nc(N)c2n1)c1ccc(C(=O)N[C@@H](CCC(=O)O)C(=O)O)cc1 [MTG, Methotrexate] |  |  | no effect whatsoever | 0.049 | 0.049 | no effect whatsoever | 1.82 | 0.019 |  |  | about 1000 fold

Reference: US12161657B2, “Combinatorial therapy for use in inducing immunogenic cell death in cancer cells” (priority 2021, dated 2024)
